Results published in ChEMBL document CHEMBL3217623, “Tacrine-mefenamic acid hybrids for inhibition of acetylcholinesterase” (Medchemcomm, 2011).

target: T1, Acetylcholinesterase (Torpedo californica, UniProt P04058); assay: Inhibition of Torpedo californica […] AChE using acetylthiocholine/DTNB as substrate preincubated for 10 mins followed by substrate addition measured every 30 secs for 30 mins by Ellmans method; design: species or system Tetronarce californica
T1 sequence (P04058 whole entry): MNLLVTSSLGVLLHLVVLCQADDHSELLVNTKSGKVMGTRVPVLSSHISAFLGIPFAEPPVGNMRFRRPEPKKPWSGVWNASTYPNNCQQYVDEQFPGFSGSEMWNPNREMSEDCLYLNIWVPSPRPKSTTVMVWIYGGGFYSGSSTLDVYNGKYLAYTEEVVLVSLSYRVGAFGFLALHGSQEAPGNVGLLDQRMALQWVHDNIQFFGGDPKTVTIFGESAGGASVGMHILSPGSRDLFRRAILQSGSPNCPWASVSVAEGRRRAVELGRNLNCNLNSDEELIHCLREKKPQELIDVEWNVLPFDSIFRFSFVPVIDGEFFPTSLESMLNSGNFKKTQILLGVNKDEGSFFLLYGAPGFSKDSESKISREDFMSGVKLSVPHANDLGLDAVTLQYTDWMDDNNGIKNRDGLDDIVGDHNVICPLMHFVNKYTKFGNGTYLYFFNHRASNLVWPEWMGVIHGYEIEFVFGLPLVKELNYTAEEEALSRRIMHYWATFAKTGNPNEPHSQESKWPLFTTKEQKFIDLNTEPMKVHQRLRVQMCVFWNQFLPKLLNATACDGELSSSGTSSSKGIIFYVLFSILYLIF

Row | Structure (SMILES) | IC50 [nM]
1 | Cc1cccc(Nc2ccccc2C(=O)NCCCCCC(=O)NCCCCCCCNc2c3c(nc4ccccc24)CCCC3)c1C | 3.6
2 | Cc1cccc(Nc2ccccc2C(=O)NCC(=O)NCCCNc2c3c(nc4ccccc24)CCCC3)c1C | 87.3
3 | Cc1cccc(Nc2ccccc2C(=O)NCCCCCC(=O)NCCCCCCCCNc2c3c(nc4cc(Cl)ccc24)CCCC3)c1C | 80.1
4 | Cc1cccc(Nc2ccccc2C(=O)NCCCCCCNc2c3c(nc4ccccc24)CCCC3)c1C | 2.24
5 | Cc1cccc(Nc2ccccc2C(=O)NCCCC(=O)NCCCCCCNc2c3c(nc4ccccc24)CCCC3)c1C | 195
6 | Cc1cccc(Nc2ccccc2C(=O)NCCCCCCCCNc2c3c(nc4cc(Cl)ccc24)CCCC3)c1C | 0.495
7 | Cc1cccc(Nc2ccccc2C(=O)NCCCC(=O)NCCCCNc2c3c(nc4ccccc24)CCCC3)c1C | 89.7
8 | Cc1cccc(Nc2ccccc2C(=O)NCCC(=O)NCCCCNc2c3c(nc4cc(Cl)ccc24)CCCC3)c1C | 2470
9 | Cc1cccc(Nc2ccccc2C(=O)NCCC(=O)NCCCCCCCNc2c3c(nc4cc(Cl)ccc24)CCCC3)c1C | 6.67
10 | Cc1cccc(Nc2ccccc2C(=O)NCC(=O)NCCCCCCCCNc2c3c(nc4ccccc24)CCCC3)c1C | 3.3
11 | Cc1cccc(Nc2ccccc2C(=O)NCCC(=O)NCCCCCCCCNc2c3c(nc4cc(Cl)ccc24)CCCC3)c1C | 18.3
12 | Cc1cccc(Nc2ccccc2C(=O)NCCCCCCCCCNc2c3c(nc4cc(Cl)ccc24)CCCC3)c1C | 6.94
13 | Cc1cccc(Nc2ccccc2C(=O)NCCCC(=O)NCCCCCCCCNc2c3c(nc4ccccc24)CCCC3)c1C | 17.4
14 | Cc1cccc(Nc2ccccc2C(=O)NCCC(=O)NCCCNc2c3c(nc4ccccc24)CCCC3)c1C | 3800
15 | Cc1cccc(Nc2ccccc2C(=O)NCC(=O)NCCCCNc2c3c(nc4cc(Cl)ccc24)CCCC3)c1C | 156
16 | Cc1cccc(Nc2ccccc2C(=O)NCCCCCC(=O)NCCCCCCCNc2c3c(nc4cc(Cl)ccc24)CCCC3)c1C | 11.1
17 | Cc1cccc(Nc2ccccc2C(=O)NCCCCCCCCCCNc2c3c(nc4cc(Cl)ccc24)CCCC3)c1C | 0.776
18 | Cc1cccc(Nc2ccccc2C(=O)NCCCC(=O)NCCCNc2c3c(nc4cc(Cl)ccc24)CCCC3)c1C | 7.13
19 | Cc1cccc(Nc2ccccc2C(=O)NCCCCCCCCCCCCNc2c3c(nc4ccccc24)CCCC3)c1C | 50.9
20 | CN(C)C(=O)Oc1ccc[n+](C)c1 [PYRIDOSTIGMINE] | 82
21 | Cc1cccc(Nc2ccccc2C(=O)NCCCC(=O)NCCCCCCCCNc2c3c(nc4cc(Cl)ccc24)CCCC3)c1C | 17
22 | Cc1cccc(Nc2ccccc2C(=O)NCC(=O)NCCCCCCCNc2c3c(nc4cc(Cl)ccc24)CCCC3)c1C | 0.418
23 | Cc1cccc(Nc2ccccc2C(=O)NCCC(=O)NCCCCNc2c3c(nc4ccccc24)CCCC3)c1C | 426
24 | CN(C)C(=O)Oc1cccc([N+](C)(C)C)c1 [NEOSTIGMINE] | 4.6
25 | Cc1cccc(Nc2ccccc2C(=O)NCCCCCC(=O)NCCCNc2c3c(nc4cc(Cl)ccc24)CCCC3)c1C | 1.65
26 | Cc1cccc(Nc2ccccc2C(=O)NCCCC(=O)NCCCCCCNc2c3c(nc4cc(Cl)ccc24)CCCC3)c1C | 41.7
27 | Cc1cccc(Nc2ccccc2C(=O)NCC(=O)NCCCCNc2c3c(nc4ccccc24)CCCC3)c1C | 262
28 | Cc1cccc(Nc2ccccc2C(=O)NCCCC(=O)NCCCCCCCNc2c3c(nc4ccccc24)CCCC3)c1C | 8.09
29 | Cc1cccc(Nc2ccccc2C(=O)NCCCC(=O)NCCCCNc2c3c(nc4cc(Cl)ccc24)CCCC3)c1C | 13.6

target: T1, Acetylcholinesterase; assay: Inhibition of Torpedo californica […] AChE using acetylthiocholine/DTNB as substrate assessed as ROS-induced enzyme inactivation preincubated for 10 mins followed by substrate addition measured every 30 secs for 20 mins in presence of horseradish peroxidase and H2O2; design: species or system Tetronarce californica

Row | Structure (SMILES) | IC50 [nM]
30 | Cc1cccc(Nc2ccccc2C(=O)NCCCCCC(=O)NCCCCCCCNc2c3c(nc4ccccc24)CCCC3)c1C | 3.66
31 | Cc1cccc(Nc2ccccc2C(=O)NCC(=O)NCCCNc2c3c(nc4ccccc24)CCCC3)c1C | 47.5
32 | Cc1cccc(Nc2ccccc2C(=O)NCCCCCC(=O)NCCCCCCCCNc2c3c(nc4cc(Cl)ccc24)CCCC3)c1C | 8.67
33 | Cc1cccc(Nc2ccccc2C(=O)NCCCCCCNc2c3c(nc4ccccc24)CCCC3)c1C | 0.129
34 | Cc1cccc(Nc2ccccc2C(=O)NCCCC(=O)NCCCCCCNc2c3c(nc4ccccc24)CCCC3)c1C | 29.9
35 | Cc1cccc(Nc2ccccc2C(=O)NCCCCCCCCNc2c3c(nc4cc(Cl)ccc24)CCCC3)c1C | 1.49
36 | Cc1cccc(Nc2ccccc2C(=O)NCCCC(=O)NCCCCNc2c3c(nc4ccccc24)CCCC3)c1C | 14.6
37 | Cc1cccc(Nc2ccccc2C(=O)NCCC(=O)NCCCCNc2c3c(nc4cc(Cl)ccc24)CCCC3)c1C | 33
38 | Cc1cccc(Nc2ccccc2C(=O)NCCC(=O)NCCCCCCCNc2c3c(nc4cc(Cl)ccc24)CCCC3)c1C | 10
39 | Cc1cccc(Nc2ccccc2C(=O)NCC(=O)NCCCCCCCCNc2c3c(nc4ccccc24)CCCC3)c1C | 17.2
40 | Cc1cccc(Nc2ccccc2C(=O)NCCC(=O)NCCCCCCCCNc2c3c(nc4cc(Cl)ccc24)CCCC3)c1C | 4.97
41 | Cc1cccc(Nc2ccccc2C(=O)NCCCCCCCCCNc2c3c(nc4cc(Cl)ccc24)CCCC3)c1C | 6.72
42 | Cc1cccc(Nc2ccccc2C(=O)NCCCC(=O)NCCCCCCCCNc2c3c(nc4ccccc24)CCCC3)c1C | 14.6
43 | Cc1cccc(Nc2ccccc2C(=O)NCCC(=O)NCCCNc2c3c(nc4ccccc24)CCCC3)c1C | 7.92
44 | Cc1cccc(Nc2ccccc2C(=O)NCC(=O)NCCCCNc2c3c(nc4cc(Cl)ccc24)CCCC3)c1C | 89.4
45 | Cc1cccc(Nc2ccccc2C(=O)NCCCCCC(=O)NCCCCCCCNc2c3c(nc4cc(Cl)ccc24)CCCC3)c1C | 13.4
46 | Cc1cccc(Nc2ccccc2C(=O)NCCCCCCCCCCNc2c3c(nc4cc(Cl)ccc24)CCCC3)c1C | 1.85
47 | Cc1cccc(Nc2ccccc2C(=O)NCCCC(=O)NCCCNc2c3c(nc4cc(Cl)ccc24)CCCC3)c1C | 1.03
48 | Cc1cccc(Nc2ccccc2C(=O)NCCCCCCCCCCCCNc2c3c(nc4ccccc24)CCCC3)c1C | 6.94
49 | Cc1cccc(Nc2ccccc2C(=O)NCCCC(=O)NCCCCCCCCNc2c3c(nc4cc(Cl)ccc24)CCCC3)c1C | 6.59
50 | Cc1cccc(Nc2ccccc2C(=O)NCC(=O)NCCCCCCCNc2c3c(nc4cc(Cl)ccc24)CCCC3)c1C | 0.009
51 | Cc1cccc(Nc2ccccc2C(=O)NCCC(=O)NCCCCNc2c3c(nc4ccccc24)CCCC3)c1C | 2.43
52 | Cc1cccc(Nc2ccccc2C(=O)NCCCCCC(=O)NCCCNc2c3c(nc4cc(Cl)ccc24)CCCC3)c1C | 7.85
53 | Cc1cccc(Nc2ccccc2C(=O)NCCCC(=O)NCCCCCCNc2c3c(nc4cc(Cl)ccc24)CCCC3)c1C | 15.6
54 | Cc1cccc(Nc2ccccc2C(=O)NCC(=O)NCCCCNc2c3c(nc4ccccc24)CCCC3)c1C | 53.6
55 | Cc1cccc(Nc2ccccc2C(=O)NCCCC(=O)NCCCCCCCNc2c3c(nc4ccccc24)CCCC3)c1C | 44.6
56 | Cc1cccc(Nc2ccccc2C(=O)NCCCC(=O)NCCCCNc2c3c(nc4cc(Cl)ccc24)CCCC3)c1C | 12.4
